We go through 13 molecules from patent US6403587B1, “Heteroaryl-hexanoic acid amide derivatives, their preparation and their use as selective inhibitors of MIP-1-α binding to its CCR 1 receptor” (Pfizer Inc., priority 1997, dated 2002).

By melting point is commonly meant the temperature of the solid-liquid transition.

Each structure is given as a SMILES string.

For `CC(C)(O)CC[C@H](C[C@H](O)[C@H](Cc1cc(F)cc(F)c1)NC(=O)c1cnc2ccccc2n1)C(=O)NO` [Example 320, Quinoxaline-2-carboxylic acid [1(S)-(3,5-difluoro-benzyl)-2(S),7-dihydroxy-4(R)-hydroxycarbamoyl-7-methyl-octyl]-amide], the melting point lay in the range of 98 to 100 °C.
`CC(C)(O)CC[C@H](C[C@H](O)[C@H](Cc1ccc2ccccc2c1)NC(=O)c1cnc2ccccc2n1)C(N)=O` [Example 333, Quinoxaline-2-carboxylic acid (4(R)-carbamoyl-2(S),7-dihydroxy-7-methyl-1(S)-naphthalen-2-ylmethyl-octyl)-amide] showed a melting point of 104 to 106 °C.
The figure for `CC(C)(O)CC[C@H](C[C@H](O)[C@H](Cc1ccccc1F)NC(=O)c1cnc2ccccc2n1)C(=O)NO` [Example 326, Quinoxaline-2-carboxylic acid [1(S)-(2-fluoro-benzyl)-2(S),7-dihydroxy4(R)-hydroxycarbamoyl-7-methyl-octyl]-amide] is 130 to 131 °C; for `CC(C)(O)CC[C@H](C[C@H](O)[C@H](Cc1cc(F)cc(F)c1)NC(=O)c1cnc2ccccc2n1)C(N)=O` [Example 315, Quinoxaline-2-carboxylic acid [4(R)-carbamoyl-1(S)-(3,5-difluoro-benzyl)-2(S),7-dihydroxy-7-methyl-octyl]-amide] it is 162 to 163 °C; for `CC(C)(O)CC[C@H](C[C@H](O)[C@H](Cc1cccc(F)c1)NC(=O)c1cnc2c(F)c(F)c(F)cc2c1)C(N)=O` [Example 332, 6,7,8-Trifluoro-quinoline-3-carboxylic acid [4(R)-carbamoyl-1(S)-(3-fluoro-benzyl)-2(S),7-dihydroxy-7-methyl-octyl]-amide] it is 183 to 185 °C.
`CC(C)(O)CC[C@H](C[C@H](O)[C@H](Cc1cccs1)NC(=O)c1cnc2ccccc2n1)C(N)=O` [Example 327, Quinoxaline-2-carboxylic acid (4(R)-carbamoyl-2(S),7-dihydroxy-7-methyl-1(S)-thiophen-2-ylmethyl-octyl)-amide]: the melting point is 158 to 159 °C.
Then `CC(C)(O)CC[C@H](C[C@H](O)[C@H](Cc1ccccc1)NC(=O)c1cnccc1C(F)(F)F)C(N)=O` [Example 323, N-(1(S)-Benzyl-4(R)-carbamoyl-2(S),7-dihydroxy-7-methyl-octyl)-4-trifluoromethyl-nicotinamide], with 131 to 135 °C; and `NC(=O)C(Cc1ccc(O)cc1)CC(O)C(Cc1ccccc1)NC(=O)c1cnc2ccccc2n1` (stereo not shown) [Example 336, Quinoxaline-2-carboxylic acid [1-benzyl-4-carbamoyl-2-hydroxy-5-(4-hydroxy-phenyl)-pentyl]-amide], with 190.5 to 191.5 °C; and `CC(C)(O)CC[C@H](C[C@H](O)[C@H](Cc1csc2ccccc12)NC(=O)c1cnc2ccccc2n1)C(N)=O` [Example 335, Quinoxaline-2-carboxylic acid (1(S)-benzo[b]thiophen-3-ylmethyl-4(R)-carbamoyl-2(S),7-dihydroxy-7-methyl-octyl)-amide], with 163 to 164 °C.
Then `CC(C)(O)CC[C@H](C[C@H](O)[C@H](Cc1ccccc1F)NC(=O)c1cnc2ccccc2n1)C(N)=O` [Example 328, Quinoxaline-2-carboxylic acid [4(R)-carbamoyl-1(S)-(2-fluoro-benzyl)-2(S),7-dihydroxy-7-methyl-octyl]-amide], with 147 to 148 °C; and `CC(C)(O)CC[C@H](C[C@H](O)[C@H](Cc1ccc(F)c(F)c1)NC(=O)c1cnc2ccccc2n1)C(N)=O` [Example 330, Quinoxaline-2-carboxylic acid [4(R)-carbamoyl-1(S)-(3,4-difluoro-benzyl)-2(S),7-dihydroxy-7-methyl-octyl]-amide], with 110 to 120 °C.
Then `CC(C)(O)CC[C@H](C[C@H](O)[C@H](Cc1ccc(F)c(F)c1)NC(=O)c1cnc2ccccc2n1)C(=O)NO` [Example 329, Quinoxaline-2-carboxylic acid [1(S)-(3,4-difluoro-benzyl)-2(S),7-dihydroxy-4(R)-hydroxycarbamoyl-7-methyl-octyl]-amide], with 150 to 153 °C; and `CC(C)(O)CC[C@H](C[C@H](O)[C@H](Cc1cccc2ccccc12)NC(=O)c1cnc2ccccc2n1)C(N)=O` [Example 331, Quinoxaline-2-carboxylic acid (4(R)-carbamoyl-2(S),7-dihydroxy-7-methyl-1(S)-naphthalen-1-ylmethyl-octyl)-amide], with 155 to 158 °C.
